Measurements from the NIST ThermoML archive (doi:10.1021/je5007696).

Experiment: xn = mol fraction of the nth substance listed
Conditions: 100 kPa, Liquid; for viscosity: Concentric cylinders viscometry; for mass density: Vibrating tube method

CCC(C)=O [butanone] + CCCCO
Conditions	mass density, 288.15 K [kg/m3]	mass density, 293.15 K [kg/m3]	mass density, 298.15 K [kg/m3]	mass density, 303.15 K [kg/m3]	viscosity, 288.15 K [mPa·s]	viscosity, 293.15 K [mPa·s]	viscosity, 298.15 K [mPa·s]	viscosity, 303.15 K [mPa·s]
x1 = 0.0997	813.126	809.157	805.165	801.147	2.293	2.034	1.814	1.626
x1 = 0.1999	812.877	808.747	804.592	800.407	1.645	1.483	1.343	1.221
x1 = 0.3003	812.583	808.3	803.992	799.653	1.257	1.147	1.051	0.9652
x1 = 0.4008	812.253	807.824	803.369	798.884	1.009	0.9297	0.8588	0.7945
x1 = 0.5003	811.906	807.337	802.741	798.115	0.8332	0.7756	0.7227	0.6753
x1 = 0.6001	811.555	806.848	802.114	797.349	0.7013	0.6603	0.6178	0.5823
x1 = 0.6992	811.203	806.362	801.494	796.597	0.5975	0.5696	0.5358	0.5093
x1 = 0.7991	810.843	805.875	800.878	795.852	0.5248	0.4997	0.475	0.4521
x1 = 0.899	810.477	805.39	800.271	795.126	0.4708	0.4505	0.4313	0.4114
x1 = 1	810.133	804.926	799.695	794.435	0.4306	0.4136	0.3962	0.3793
